# Results: patent US4898868A, “3-demethyl-4-fluoromevalonic acid derivatives, a process for the preparation thereof, pharmaceutical products based on these compounds, the use thereof, and intermediates” (Hoechst Aktiengesellschaft, priority 1987, dated 1990)
# Legend:
# HMG-CoA reductase [1] = settings: Endo et al. 1976; Brown et al. 1976; cited from earlier work
# HMG-CoA reductase [2] = molecular target: T1, HMG-CoA reductase (Rattus norvegicus, UniProt P51639); assay: inhibition of HMG-CoA reductase activity on solubilized enzyme preparations from rat liver microsomes; type: biochemical; settings: solubilized rat liver microsomal enzyme; mean of 3 parallel samples; optically pure compounds
# T1 sequence (P51639 1-887): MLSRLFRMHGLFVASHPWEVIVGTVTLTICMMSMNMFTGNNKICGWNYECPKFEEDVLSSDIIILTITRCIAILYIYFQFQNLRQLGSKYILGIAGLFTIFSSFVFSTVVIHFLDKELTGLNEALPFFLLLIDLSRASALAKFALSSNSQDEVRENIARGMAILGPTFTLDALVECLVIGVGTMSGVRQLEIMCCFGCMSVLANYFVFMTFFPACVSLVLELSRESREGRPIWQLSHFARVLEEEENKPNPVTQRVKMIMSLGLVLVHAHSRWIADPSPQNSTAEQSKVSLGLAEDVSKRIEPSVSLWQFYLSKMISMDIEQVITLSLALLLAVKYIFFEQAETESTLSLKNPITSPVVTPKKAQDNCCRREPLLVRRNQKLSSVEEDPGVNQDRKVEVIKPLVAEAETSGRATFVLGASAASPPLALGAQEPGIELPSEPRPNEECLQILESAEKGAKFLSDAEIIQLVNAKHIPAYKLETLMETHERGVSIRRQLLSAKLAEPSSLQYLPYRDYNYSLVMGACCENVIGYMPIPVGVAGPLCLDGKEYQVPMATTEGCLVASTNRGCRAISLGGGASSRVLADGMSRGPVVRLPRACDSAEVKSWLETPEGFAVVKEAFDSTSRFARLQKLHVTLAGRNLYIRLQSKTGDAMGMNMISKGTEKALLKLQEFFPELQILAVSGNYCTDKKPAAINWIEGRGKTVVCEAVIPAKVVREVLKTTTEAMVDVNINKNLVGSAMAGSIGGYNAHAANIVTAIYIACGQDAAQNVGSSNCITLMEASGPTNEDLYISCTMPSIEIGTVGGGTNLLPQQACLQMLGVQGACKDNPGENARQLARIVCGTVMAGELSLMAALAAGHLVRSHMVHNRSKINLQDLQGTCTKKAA
# [3] = test system: cholesterol biosynthesis in HEP G2 cells; assay: inhibition of cholesterol biosynthesis in HEP G2 cell cultures by incorporation of 14C-precursor (14C-acetate) in cholesterol; type: cell-based; settings: Homo sapiens, HepG2, 1 hour preincubation, 3 hours with 14C-acetate
# Procedure: In addition, the inhibition of cholesterol biosynthesis in cell cultures was tested with selected compounds by the incorporation of ^14 C-precursor in cholesterol.
# Monolayers of HEP G2 cells in Lipoprotein-free nutrient medium were incubated with various concentrations of the test substances for 1 hour. After addition of the ^14 C-labeled precursor sodium ^14 C-acetate, the incubation was continued for 3 hours. Then ^3 H-cholesterol was added as internal standard, and some of the cells were hydrolyzed with alkali. The lipids were extracted from the hydrolyzed cells using chloroform/methanol. Carrier cholesterol was added to this lipid mixture which was then subjected to preparative thin-layer chromatography, the cholesterol band was visualized with iodine vapor and then isolated, and the amount of ^14 C-cholesterol formed from the ^14 C-precursor was determined by scintigraphy. Cellular protein was determined in an aliquot of the cells, so that it is possible to calculate the amount of ^14 C-cholesterol formed from the ^14 C-precursor per mg of cellular protein in unit time. The solvent control is used for comparison with the inhibitory effect of an added test product, so that the inhibition of cholesterol biosynthesis at a particular molar concentration of the test product in the medium can be stated. The absence of cell damage due to the action of the products was confirmed in an aliquot of the cell culture by the morphology (light microscope). The IC50 values of the test products are stated in mol/l (in Table II), and their relative potencies are compared with mevinolin sodium salt and mevinolin lactone (comparison of the IC50 values).
# total serum cholesterol = assay: cholesterol-lowering efficacy in normolipidemic male New Zealand rabbits; type: in vivo, rabbit
# Procedure: (§1) The cholesterol-lowering efficacy was investigated in the following test on rabbits Normolipidemic male New Zealand rabbits (weight 3-3.5 kg, 4-6 animals per test group) received the test compounds suspended in a 1% strength aqueous carboxymethylcellulose solution (®Tylose) by gavage each day in the morning; the control group received only Tylose solution. Venous blood was taken every 3 to 4 days 20 hours after the oral administration of the solutions. The total cholesterol content in these samples was determined enzymatically using the Boehringer Mannheim assay kit (CHOD-PAP-high performance method). The serum cholesterol level in the group treated with test compounds was compared with that in the control group. The treatment period was followed by a period in which the test compounds were no longer administered.
# liver enzyme levels = liver enzyme levels in the rabbit test; type: in vivo; settings: 10 mg/kg/day by gavage; rabbits
# Procedure: as §1
# The serum cholesterol levels returned to their initial value within 3 days after discontinuation of the product (after 10 days).
SMILES,IC50 (HMG-CoA reductase [2]),IC50 [3],further results
CC[C@H](C)C(=O)O[C@H]1CCC=C2C=C[C@H](C)[C@H](CC[C@@H]3C[C@@H](O)CC(=O)O3)[C@H]21 [compactin],–,–,inhibition of HMG-CoA reductase (in words) (HMG-CoA reductase [1]): potent competitive inhibitor of HMG-CoA reductase
"O=C1C[C@H](O)[C@@H](F)[C@@H](CSc2c(Cl)cc(Cl)cc2C(c2ccc(F)cc2)c2ccc(F)cc2)O1 [Example 12, 6-(2,4-Dichloro-6-(bisparafluorophenylmethyl)phenylthio)-3(R),5(S)-dihydroxy-4(R)-fluorohexanoic acid lactone]",2000 nM,5500 nM,–
Cc1cc(C)c(/C=C/[C@@H](O)[C@H](F)[C@@H](O)CC(=O)O)c(-c2ccc(F)cc2)c1,98 nM,–,–
"CC(C)c1nc(-c2ccccc2)nc(-c2ccc(F)cc2)c1/C=C/[C@H]1OC(=O)C[C@H](O)[C@H]1F [Example 38, 3(S),5(R)-dihydroxy-4(R)-fluoro-7-[6-parafluorophenyl-4-isopropyl-2-phenyl-1,3-diazin-5-yl]hept-6E-enoic acid lactone]",–,250 nM,–
CC(C)c1nc(-c2ccccc2)cc(-c2ccc(F)cc2)c1CC[C@@H](O)[C@@H](F)[C@@H](O)CC(=O)O,20 nM,–,–
CC(C)c1cc(-c2ccccc2)cc(-c2ccc(F)cc2)c1/C=C/[C@@H](O)[C@H](F)[C@@H](O)CC(=O)O,6.3 nM,–,–
"CC(C)c1nc(-c2ccccc2)cc(-c2ccc(F)cc2)c1/C=C/[C@H]1OC(=O)C[C@H](O)[C@H]1F [Example 34, 3(S),5(R)-Dihydorxy-4(R)-fluoro-7-(2-isopropyl-4-parafluorophenyl-6-phenyl-3-pyridyl)hept-6E-enoic acid lactone]",–,110 nM,"time within which the 40% lowering of total cholesterol was reached (total serum cholesterol; 10 mg/kg/day by gavage): ≤ 3 days; lowering of total cholesterol (total serum cholesterol; 10 mg/kg/day by gavage in 1% carboxymethylcellulose, within 3 days, vs control group): 40%; course of total cholesterol lowering during administration (total serum cholesterol; 10 mg/kg/day by gavage, 10 days): remained constant throughout the administration; time for serum cholesterol levels to return to initial value after discontinuation (total serum cholesterol; 10 mg/kg/day by gavage, discontinuation after 10 days): ≤ 3 days; changes in the liver enzyme levels (liver enzyme levels): without eliciting abnormal or pathological changes in the liver enzyme levels"
CC(C)c1nc(-c2ccccc2)nc(-c2ccc(F)cc2)c1/C=C/[C@@H](O)[C@H](F)[C@@H](O)CC(=O)O,36 nM,–,–
CC(C)c1nc(-c2ccccc2)cc(-c2ccc(F)cc2)c1/C=C/[C@@H](O)[C@H](F)[C@@H](O)CC(=O)O,8.5 nM,–,–
"CCCCc1cc(Cl)cc(Cl)c1/C=C/[C@H]1OC(=O)C[C@H](O)[C@H]1F [Example 18, 7-(2-n-Butyl-4,6-dichlorophenyl)-3(S),5(R)-dihydroxy-4(R)-fluoro-E-hept-6-enoic acid lactone]",32 nM,320 nM,–
